Experimental data taken from paper PMC6321301, “Phenolic Composition, Antioxidant Properties, and Inhibition toward Digestive Enzymes with Molecular Docking Analysis of Different Fractions from Prinsepia utilis Royle Fruits” (Molecules, 2018).
pIC50: −log10 of the molar value. Like-named read-outs stand apart in the source and are kept apart here.

Assays:
[1] = target: T1, α-glucosidase from Saccharomyces cerevisiae (Saccharomyces cerevisiae, UniProt P53341); assay: α-Glucosidase inhibition; assay type: biochemical
T1 construct: purchased Sigma (Sigma-Aldrich, Shanghai, China); host or cells: Saccharomyces cerevisiae (natural source, as named)
Description: (§1) Methanol, acetonitrile, formic acid, and Folin–Ciocalteu reagent were purchased from Merck (Darmstadt, Germany). […] All of the other reagents that were used were of analytical grade.
The α-glucosidase inhibition activities of different fractions from P. utilis fruits, rutin, and isorhamnetin-3-O-glucoside were evaluated as previously described with some modifications. The absorbance (OD) of the each reaction mixture at 405 nm was recorded by using a SpectraMax M5 microplate reader (Molecular Device, Sunnyvale, CA, USA).

[2] = cited from earlier work
[3] = target: T2, porcine pancreatic lipase (Sus scrofa, UniProt P00591); assay: Pancreatic lipase inhibition; assay type: biochemical; settings: mean ± SD, n = 3
T2 construct: purchased Sigma (Sigma-Aldrich, Shanghai, China); host or cells: porcine pancreas (natural source)
T2 sequence (P00591 1-450): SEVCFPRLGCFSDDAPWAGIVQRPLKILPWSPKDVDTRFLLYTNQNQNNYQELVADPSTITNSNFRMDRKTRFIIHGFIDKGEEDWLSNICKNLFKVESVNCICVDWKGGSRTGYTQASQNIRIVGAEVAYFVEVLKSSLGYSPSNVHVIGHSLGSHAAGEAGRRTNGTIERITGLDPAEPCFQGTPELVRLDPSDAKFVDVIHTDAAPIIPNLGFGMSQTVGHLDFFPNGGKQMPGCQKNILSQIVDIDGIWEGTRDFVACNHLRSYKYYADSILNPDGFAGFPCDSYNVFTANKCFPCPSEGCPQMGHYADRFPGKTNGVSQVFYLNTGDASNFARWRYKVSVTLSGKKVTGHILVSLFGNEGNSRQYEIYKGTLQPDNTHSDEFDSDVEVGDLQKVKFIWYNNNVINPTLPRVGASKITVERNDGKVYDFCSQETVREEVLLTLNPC
Description: as §1
The inhibitory effects of different fractions from P. utilis fruits, rutin, isorhamnetin-3-O-glucoside, and cyanidin-3-O-glucoside against pancreatic lipase activity were measured according to the method reported earlier. The absorbance (OD) was measured at 400 nm by using a SpectraMax M5 microplate reader. Each test was measured three times.

[4] = cited from earlier work; remark: listed apart in the source
α-glucosidase = settings: cited from earlier work
[5] = DPPH radical scavenging assay; settings: mean ± SD, n = 3
Description: The current result was consistent with many previous studies. Huang et al. reported that the phenolic compounds in P. utilis seeds were responsible for their DPPH radical scavenging activities, regardless of different pretreatments. Zhang et al. also considered phenolics to be the main bioactive substances in Rhus chinensis Mill. fruits to scavenge DPPH radicals.
The antioxidant activities of all of the fractions from P. utilis fruits were determined by DPPH assay according to the methods described earlier. The absorbance of the reaction mixture was recorded by a SpectraMax M5 microplate reader (Molecular Device, Sunnyvale, CA, USA) at 517 nm. The DPPH radical scavenging activity (%) was calculated as [(ODcontrol − ODsample)/ODcontrol] × 100. Each test was measured in triplicate.

[6] = ABTS radical scavenging assay; settings: mean ± SD, n = 3
From the text: Phenolic compounds in P. utilis fruits may be also in charge of the ABTS scavenging capacities, which were confirmed by a high Pearson’s correlation coefficient between the phenolic contents and ABTS radical scavenging ratio (r = 0.889, p < 0.01). Some discrepancies between the IC50 values of DPPH and ABTS assays of the same fraction from P. utilis fruits were observed, which may be due to the different radical structure. Many previous studies also found a similar phenomenon when the DPPH results were compared with the ABTS findings.
The antioxidant activities of all of the fractions from P. utilis fruits were measured by ABTS assay as described earlier. The absorbance of the reaction mixture was determined with a SpectraMax M5 microplate reader at 745 nm. The ABTS radical scavenging activity (%) of each sample was calculated as [(ODcontrol − ODsample)/ODcontrol] × 100. Each test was measured three times.

H2O2-induced HepG2 cells = assay: Inhibition of intracellular ROS in H2O2-induced HepG2 cells (DCFH-DA, flow cytometry); assay type: cell-based; settings: 8.0 μg/mL, positive control; p < 0.05
Description: HepG2 cells were supplied by Kunming cell bank, Chinese Academy of Sciences (Kunming, China), which were cultured in normal Dulbecco’s Modified Eagle Medium (DMEM) medium containing 10% fetal bovine serum (FBS), 1% antibiotic mixture of streptomycin (100 mg/mL) and penicillin (100 U/mL) at 37 °C with a humidified 5% CO2 atmosphere. […] Briefly, cells were seeded on six-well plates at 2.0 × 10^5 cells per well, and incubated for 24 h. […] Then, cells were harvested and washed twice with phosphate buffer solution (PBS). The cells of all of the groups were incubated with 10 μM of DCFH-DA for 20 min, and washed with serum-free medium to remove excess DCFH-DA by centrifuging at 156× g for five minutes. Subsequently, the intracellular ROS of each group was measured by flow cytometry with guava® easyCyte 6-2L (Millipore, Billerica, MA, USA) within 45 min. All of the experiments were measured in triplicate.

T1 sequence (P53341 whole entry): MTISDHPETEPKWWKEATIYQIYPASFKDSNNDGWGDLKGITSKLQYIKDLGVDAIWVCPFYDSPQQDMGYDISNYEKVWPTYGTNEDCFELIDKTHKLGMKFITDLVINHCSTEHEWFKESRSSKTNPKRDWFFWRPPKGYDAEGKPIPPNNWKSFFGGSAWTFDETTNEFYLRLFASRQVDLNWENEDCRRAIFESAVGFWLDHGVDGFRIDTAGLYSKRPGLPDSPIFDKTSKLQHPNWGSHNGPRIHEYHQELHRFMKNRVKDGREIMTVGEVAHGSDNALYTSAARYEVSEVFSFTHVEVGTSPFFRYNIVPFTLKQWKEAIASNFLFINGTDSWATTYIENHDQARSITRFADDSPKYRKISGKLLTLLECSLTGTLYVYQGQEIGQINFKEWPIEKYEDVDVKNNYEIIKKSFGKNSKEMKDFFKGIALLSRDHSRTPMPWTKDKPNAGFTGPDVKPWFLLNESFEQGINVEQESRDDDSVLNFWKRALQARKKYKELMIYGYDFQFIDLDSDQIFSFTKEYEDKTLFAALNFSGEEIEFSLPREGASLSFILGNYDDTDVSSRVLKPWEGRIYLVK

With C[C@@H]1O[C@@H](OC[C@H]2O[C@@H](Oc3c(-c4ccc(O)c(O)c4)oc4cc(O)cc(O)c4c3=O)[C@H](O)[C@@H](O)[C@@H]2O)[C@H](O)[C@H](O)[C@H]1O [Rutin] as the compound, how does the pIC50 [1] read?
Its pIC50 is 3.68.

What about the “DPPH radical scavenging IC50” value [2] of the same compound?
Its value is 29.63 µg/mL.

What about the pIC50 [3] of the same compound?
The pIC50 was 3.54.

And the “ABTS radical scavenging IC50” value [4]?
The value was 5.34 µg/mL.

For O=C(CCc1ccc(O)cc1)c1c(O)cc(O)cc1O [phloretin], which “α-glucosidase inhibition IC50” value (α-glucosidase) is on record?
Its value is 31.26 µg/mL.

What about the “manner of α-glucosidase inhibition” value (α-glucosidase; reversible) of the same compound?
The value was “mixed-type”.

With OC[C@H]1O[C@@H](Oc2cc3c(O)cc(O)cc3[o+]c2-c2ccc(O)c(O)c2)[C@H](O)[C@@H](O)[C@@H]1O [Cyanidin-3-O-glucoside] as the compound, how does the “pancreatic lipase inhibition IC50” value [3] read?
Its value is 249.20 ± 3.87 µg/mL.

What does the source list for O=C(O[C@@H]1Cc2c(O)cc(O)cc2O[C@H]1c1cc(O)c(O)c(O)c1)c1cc(O)c(O)c(O)c1 [gallocatechin gallate]?
manner of α-glucosidase inhibition (α-glucosidase): noncompetitive; α-glucosidase inhibition IC50 (α-glucosidase): 30.02 µg/mL

With O=C1O[C@H]([C@@H](O)CO)C(O)=C1O [Vc, ascorbic acid] as the compound, how does the “DPPH radical scavenging IC50” value [5] read?
Its value is 2.32 ± 0.11 µg/mL.

And the “ABTS radical scavenging IC50” value [6]?
The value was 1.92 ± 0.21 µg/mL.

And the “intracellular ROS generation” value (H2O2-induced HepG2 cells)?
Its value is “significantly inhibited intracellular ROS generation”.

For COc1cc(-c2oc3cc(O)cc(O)c3c(=O)c2O[C@@H]2O[C@H](CO[C@@H]3O[C@@H](C)[C@H](O)[C@@H](O)[C@H]3O)[C@@H](O)[C@H](O)[C@H]2O)ccc1O [Isorhamnetin-3-O-rutinoside], which “α-glucosidase inhibition IC50” value ([1]; mean ± SD, n = 3) is on record?
Its value is 90.19 ± 3.27 µg/mL.

And the “pancreatic lipase inhibition IC50” value [3]?
The value was 237.87 ± 8.20 µg/mL.
